{
  "source": "patent US12533341B2",
  "about": "“Small molecule inhibitors of voltage-gated sodium channel 1.7 and methods of using same” (Duke University, priority 2019, dated 2026)",
  "key": {"[1]": {"tested_on": "formalin-induced inflammatory pain", "assay": "Formalin-induced nociceptive behavioral test", "format": "in vivo, mouse", "details": "mice", "description": "The formalin test was conducted following our previously published protocol (Chen, Ji, et al. 2018; Neurosci Bull; 34: 98-108). The animals were acclimatized in a transparent acrylic observation chamber for 2 days before test. Vehicle or active compound were administered intrathecally, intraperitoneally, or intraplantarly, 30 min later followed by an intraplantar injection of 20 μL of 5% formalin. After the formalin injection, mice were immediately placed back in the observation chamber, and videoed for 40 min. The videos were analyzed after experiments in a double blinded way. We assessed formalin-evoked spontaneous pain by measuring the time (in seconds) mice spent on licking or flinching the affected paw every 5 min for […]. Phase I and Phase II were defined as periods of 0-10 min and 10-40 min, respectively.\nFor intrathecal injection, spinal cord puncture was made by a Hamilton microsyringe (Hamilton Company, Reno, Nevada) with a 30-G needle between the L5 and L6 level to deliver reagents (5 μL) to the cerebral spinal fluid. For intraperitoneal injection, Vehicle or drug was injected into peritoneal with a 30-G needle. For intraplantar injection, 20 μL vehicle or drug was injected into the surface of the hind paw."}, "hNav1.5": {"target": "T1, hNav1.5 (Homo sapiens, UniProt Q14524)", "T1 construct": "expressed in transfected cells; host or cells: HEK293 (ATCC), transient transfection with Lipofectamine 2000", "T1 sequence (Q14524 whole entry)": "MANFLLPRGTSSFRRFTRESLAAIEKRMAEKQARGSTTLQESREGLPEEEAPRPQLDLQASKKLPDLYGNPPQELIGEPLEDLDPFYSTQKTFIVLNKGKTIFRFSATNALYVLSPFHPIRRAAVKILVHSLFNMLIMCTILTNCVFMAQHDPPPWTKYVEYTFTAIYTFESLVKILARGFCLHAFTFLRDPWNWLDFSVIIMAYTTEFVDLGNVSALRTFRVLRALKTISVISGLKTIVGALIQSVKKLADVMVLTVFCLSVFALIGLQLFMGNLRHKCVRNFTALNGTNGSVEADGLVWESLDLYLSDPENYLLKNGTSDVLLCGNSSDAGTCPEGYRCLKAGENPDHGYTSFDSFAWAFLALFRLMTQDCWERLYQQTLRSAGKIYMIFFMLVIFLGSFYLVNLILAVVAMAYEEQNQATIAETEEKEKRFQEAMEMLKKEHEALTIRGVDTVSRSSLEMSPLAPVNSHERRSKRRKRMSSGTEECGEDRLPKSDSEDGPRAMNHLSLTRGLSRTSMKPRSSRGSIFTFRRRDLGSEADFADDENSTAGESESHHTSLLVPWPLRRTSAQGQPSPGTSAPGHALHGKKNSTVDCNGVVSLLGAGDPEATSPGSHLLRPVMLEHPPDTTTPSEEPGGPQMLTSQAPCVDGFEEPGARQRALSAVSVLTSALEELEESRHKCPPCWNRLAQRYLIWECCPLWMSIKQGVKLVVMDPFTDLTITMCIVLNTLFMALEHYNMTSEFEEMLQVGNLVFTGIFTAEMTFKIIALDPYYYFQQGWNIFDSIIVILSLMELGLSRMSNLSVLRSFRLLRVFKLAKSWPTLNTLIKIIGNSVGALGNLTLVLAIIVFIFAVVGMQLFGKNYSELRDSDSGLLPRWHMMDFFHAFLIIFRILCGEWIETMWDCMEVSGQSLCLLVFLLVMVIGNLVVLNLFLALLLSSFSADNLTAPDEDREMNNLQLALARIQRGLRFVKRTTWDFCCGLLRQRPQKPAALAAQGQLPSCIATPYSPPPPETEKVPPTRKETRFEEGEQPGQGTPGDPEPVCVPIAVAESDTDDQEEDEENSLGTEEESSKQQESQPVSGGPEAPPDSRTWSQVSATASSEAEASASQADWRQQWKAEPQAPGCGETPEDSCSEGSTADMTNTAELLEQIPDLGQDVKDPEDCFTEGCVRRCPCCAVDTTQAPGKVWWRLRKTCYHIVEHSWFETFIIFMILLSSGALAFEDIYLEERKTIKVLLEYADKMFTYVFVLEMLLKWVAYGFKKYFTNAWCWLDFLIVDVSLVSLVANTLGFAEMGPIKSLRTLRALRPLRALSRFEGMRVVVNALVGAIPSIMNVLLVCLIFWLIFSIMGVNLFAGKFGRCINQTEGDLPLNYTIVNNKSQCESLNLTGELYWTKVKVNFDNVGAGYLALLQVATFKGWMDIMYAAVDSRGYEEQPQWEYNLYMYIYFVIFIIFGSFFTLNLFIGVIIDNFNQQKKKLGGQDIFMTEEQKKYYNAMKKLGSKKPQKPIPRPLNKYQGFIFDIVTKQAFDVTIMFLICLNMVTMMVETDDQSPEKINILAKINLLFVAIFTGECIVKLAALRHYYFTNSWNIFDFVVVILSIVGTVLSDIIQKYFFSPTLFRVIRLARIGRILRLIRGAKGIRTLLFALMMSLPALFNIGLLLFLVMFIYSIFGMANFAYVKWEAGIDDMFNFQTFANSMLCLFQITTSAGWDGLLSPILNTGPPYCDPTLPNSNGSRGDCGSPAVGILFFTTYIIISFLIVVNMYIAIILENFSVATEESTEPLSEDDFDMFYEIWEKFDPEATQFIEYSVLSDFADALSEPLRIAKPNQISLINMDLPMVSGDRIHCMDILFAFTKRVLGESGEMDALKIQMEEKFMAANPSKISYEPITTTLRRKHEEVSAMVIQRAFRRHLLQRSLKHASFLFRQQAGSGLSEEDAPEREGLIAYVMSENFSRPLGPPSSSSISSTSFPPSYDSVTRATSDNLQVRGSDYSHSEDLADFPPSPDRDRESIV", "assay": "Whole-cell patch-clamp of sodium currents in Nav1.5-transfected HEK293 cells", "format": "cell-based", "details": "FIG. 4D, E", "description": "(§1) HEK-hNav1.7 stable cell line was purchased from SB Drug Discovery (Glasgow, United Kingdom). Human embryonic kidney 293 (HEK293) cells were obtained from the ATCC and maintained at the Duke cell culture facility. Cells were cultured in high-glucose (4.5 g/L) DMEM containing 10% (v/v) FBS (Gibco) and streptomycin/penicillin. For Nav1.7-expressing HEK293 cells, an additional antibiotic, blasticidin, was included. hNav1.5 transfection was performed by Lipofectamine 2000 at 70% confluence using 2 μg cDNA. The transfected cells were cultured in the same growth medium for 48 h before biochemical or electrophysiological studies.\nWhole-cell patch-clamp recordings were conducted at room temperature. Patch pipettes pulled from borosilicate capillaries (World Precision Instruments, Inc., Sarasota, FL) were used to record transient Na currents with an Axopatch-200B amplifier with a Digidata 1440A (Axon Instruments, Sunnyvale CA). The resistance was set to 3-4 MΩ when filled with pipette solution. The pipette solution contained (in mmol/L): CsCl 130, NaCl 9, MgCl2 1, EGTA 10, HEPES 10, adjusted to pH 7.3 with CsOH. The external solution for recording transient Na^+ currents contained (in mmol/L): NaCl 131, TEACl 10, CsCl 10, CaCl2) 1, MgCl2 2, CdCl2 0.3, 4-aminopyridine 3, HEPES 10, glucose 10, adjusted to pH 7.4 with NaOH. The recording chamber (300 μL) was continuously superfused at 3-4 mL/min. […]"}, "[2]": {"tested_on": "paclitaxel-induced mechanical allodynia", "assay": "Paclitaxel-induced neuropathic pain model (von Frey)", "format": "in vivo, mouse", "details": "for effect on paclitaxel-induced mechanical allodynia: mice", "description": "Intraperitoneal injection of paclitaxel (PTX, 2 mg/kg for multiple injections at day 0, 2, 4, and 6) was given to generate chemotherapy-associated neuropathic pain. Neuropathic pain behavior was tested 3 weeks after PTX injection using a von Frey test. Briefly, animals were habituated to the testing environment daily for at least 2 days before the baseline testing. Animals were confined in boxes placed on an elevated metal mesh floor and the hind paws were stimulated with a series of von Frey hairs with logarithmically increasing stiffness (0.02-2.56 g, Stoelting), presented perpendicularly to the central plantar surface. The 50% paw withdrawal threshold was determined by an up-down method."}, "human Nav1.7": {"target": "human Nav1.7 (Homo sapiens, UniProt Q15858)", "sequence (Q15858 whole entry)": "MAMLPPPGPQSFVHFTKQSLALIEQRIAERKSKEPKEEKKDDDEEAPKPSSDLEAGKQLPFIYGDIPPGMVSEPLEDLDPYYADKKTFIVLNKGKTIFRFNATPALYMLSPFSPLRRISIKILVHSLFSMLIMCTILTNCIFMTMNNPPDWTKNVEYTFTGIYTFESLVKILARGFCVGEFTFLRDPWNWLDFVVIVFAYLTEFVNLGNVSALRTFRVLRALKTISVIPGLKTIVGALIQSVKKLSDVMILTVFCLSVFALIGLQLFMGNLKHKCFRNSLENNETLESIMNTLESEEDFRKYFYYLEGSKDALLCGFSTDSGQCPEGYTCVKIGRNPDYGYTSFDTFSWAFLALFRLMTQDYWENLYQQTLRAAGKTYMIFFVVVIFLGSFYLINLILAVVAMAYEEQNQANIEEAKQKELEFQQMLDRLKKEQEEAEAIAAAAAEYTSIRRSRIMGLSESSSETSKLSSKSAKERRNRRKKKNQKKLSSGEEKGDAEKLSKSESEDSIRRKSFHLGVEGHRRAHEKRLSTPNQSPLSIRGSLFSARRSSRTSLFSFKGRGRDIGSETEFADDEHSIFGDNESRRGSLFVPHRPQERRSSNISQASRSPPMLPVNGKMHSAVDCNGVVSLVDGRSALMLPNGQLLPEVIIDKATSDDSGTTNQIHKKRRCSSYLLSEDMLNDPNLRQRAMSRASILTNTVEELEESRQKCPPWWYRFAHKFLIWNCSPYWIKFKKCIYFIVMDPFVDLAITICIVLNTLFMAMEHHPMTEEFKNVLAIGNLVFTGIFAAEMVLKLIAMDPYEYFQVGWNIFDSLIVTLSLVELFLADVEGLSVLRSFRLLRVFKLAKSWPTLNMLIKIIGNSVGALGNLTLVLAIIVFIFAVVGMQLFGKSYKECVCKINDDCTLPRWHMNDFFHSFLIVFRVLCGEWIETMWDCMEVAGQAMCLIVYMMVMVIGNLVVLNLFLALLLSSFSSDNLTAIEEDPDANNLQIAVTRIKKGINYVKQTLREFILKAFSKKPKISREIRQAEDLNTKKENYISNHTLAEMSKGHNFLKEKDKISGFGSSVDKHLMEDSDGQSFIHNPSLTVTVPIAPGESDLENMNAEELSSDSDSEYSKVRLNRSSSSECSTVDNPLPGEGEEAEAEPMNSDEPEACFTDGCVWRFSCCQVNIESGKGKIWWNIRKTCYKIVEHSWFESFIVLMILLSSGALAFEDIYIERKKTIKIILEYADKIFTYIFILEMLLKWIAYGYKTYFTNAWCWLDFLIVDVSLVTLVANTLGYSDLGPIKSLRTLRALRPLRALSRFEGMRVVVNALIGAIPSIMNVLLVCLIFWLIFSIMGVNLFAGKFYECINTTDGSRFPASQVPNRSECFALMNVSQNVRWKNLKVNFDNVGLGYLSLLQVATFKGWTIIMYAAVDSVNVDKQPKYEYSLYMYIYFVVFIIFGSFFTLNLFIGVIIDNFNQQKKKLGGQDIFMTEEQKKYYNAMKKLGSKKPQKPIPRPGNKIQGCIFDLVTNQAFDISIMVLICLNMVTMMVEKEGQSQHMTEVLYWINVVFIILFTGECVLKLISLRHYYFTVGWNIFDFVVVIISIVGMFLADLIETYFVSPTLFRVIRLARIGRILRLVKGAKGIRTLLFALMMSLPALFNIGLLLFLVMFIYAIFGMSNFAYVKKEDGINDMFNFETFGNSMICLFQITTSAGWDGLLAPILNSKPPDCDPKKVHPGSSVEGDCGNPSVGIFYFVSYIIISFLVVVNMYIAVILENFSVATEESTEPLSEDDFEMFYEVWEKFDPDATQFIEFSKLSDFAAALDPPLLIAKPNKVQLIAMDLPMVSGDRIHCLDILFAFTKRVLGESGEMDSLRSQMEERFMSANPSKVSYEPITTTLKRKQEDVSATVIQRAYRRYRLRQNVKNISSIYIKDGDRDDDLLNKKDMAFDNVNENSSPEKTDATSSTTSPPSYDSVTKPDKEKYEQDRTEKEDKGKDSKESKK", "assay": "Whole-cell patch-clamp of sodium currents in Nav1.7-expressing HEK293 cells", "format": "cell-based", "description": "as §1\nWhole-cell patch-clamp recordings were conducted at room temperature. Patch pipettes pulled from borosilicate capillaries (World Precision Instruments, Inc., Sarasota, FL) were used to record transient Na currents with an Axopatch-200B amplifier with a Digidata 1440A (Axon Instruments, Sunnyvale CA). The resistance was set to 3-4 MΩ when filled with pipette solution. The pipette solution contained (in mmol/L): CsCl 130, NaCl 9, MgCl2 1, EGTA 10, HEPES 10, adjusted to pH 7.3 with CsOH. The external solution for recording transient Na^+ currents contained (in mmol/L): NaCl 131, TEACl 10, CsCl 10, CaCl2) 1, MgCl2 2, CdCl2 0.3, 4-aminopyridine 3, HEPES 10, glucose 10, adjusted to pH 7.4 with NaOH. The recording chamber (300 μL) was continuously superfused at 3-4 mL/min. Series resistance was compensated (>80%) and leak subtraction was performed. Data were low-pass-filtered at 2 kHz and sampled at 10 kHz. pClamp10 (Axon Instruments) software was used during experiments and analysis. In voltage-clamp experiments, transient Na+ currents were evoked by a test pulse to 0 mV from the holding potential (−70 mV).\nThe effects of the 9 selected compounds on Nav1.7 channel activities were tested using patch-clamp recordings on human Nav1.7 expressing HEK293 cells (FIG. 3, FIG. 4). In each cell, sodium currents were recorded for 13 min, and candidate inhibitors (10 μM) were incubated for 2 min after 2 min baseline recording (FIG. 3). Compound was applied at the beginning of the second minute for two minutes (denoted as a horizontal line above the X-axis). Sodium currents were recorded at equal intervals (every 20 seconds, 40 recordings per compound per cell). Data was analyzed with a two-way repeated measures ANOVA, followed by a post-hoc test of the last timepoint Bonferroni-corrected for 9 pairwise comparisons (each compound was compared with control). […] Sample size n=3 to 7 cells per group.\nFor FIG. 4C, sample size was n=5 to 7 cells per group. Compound was applied at the beginning of the second minute for two minutes (denoted as a horizontal line above the X-axis). Sodium currents were recorded every 20 seconds."}, "[3]": {"tested_on": "lymphoma-induced chronic itch", "assay": "Mouse CTCL xenograft model of chronic itch", "format": "in vivo", "description": "We used a murine xenograft model of cutaneous T cell lymphoma (CTCL) using immune-deficient mice (NOD.CB17-Prkdcscid, 8-10 weeks old, male). CD4+ MyLa cell line was purchased from Sigma (Catalog #95051032). The cell line was established from a plaque biopsy of a person with mycosis fungoides stage II by inclusion of IL-2 and IL-4 in the culture medium. CTCL was generated via intradermal injection of CD4+ Myla cells (1×10^5 cells/μL, 100 μL) on the nape of the neck. Itch behavior was tested on Day 50 after inoculation of CTCL cells."}},
  "note": "Entries after “also recorded” stand apart in the source; their conditions may differ.",
  "data": [
    {"smiles": "O=C(CC(c1cccc(Oc2ccccc2)c1)c1cn(Cc2ccccc2)c2ccccc12)NCCN1CCCC1", "note": "(stereo not shown) [Compound 9, 3-(1-benzyl-1H-indol-3-yl)-3-(3-phenoxyphenyl)-N-(2-(pyrrolidin-1-yl)ethyl)propanamide]", "values": [
      {"measurement": "inhibition of formalin-induced pain in Phase II", "setting": "[1]; intraperitoneal 30 mg/kg", "result": 76, "unit": "%"},
      {"measurement": "inhibition of formalin-induced pain in Phase II", "setting": "[1]; intraplantar 60 nmol", "result": "significant inhibition"},
      {"measurement": "effect on formalin Phase I response", "setting": "[1]; intrathecal 30 nmol", "result": "reduced Phase I response"},
      {"measurement": "inhibition of formalin-induced second-phase (Phase II) pain", "setting": "[1]; intrathecal (3, 10 and 30 nmol)", "result": 80, "unit": "%"},
      {"measurement": "effect on sodium currents in Nav1.5-expressing HEK293 cells", "setting": "hNav1.5", "result": "no effects"},
      {"measurement": "effect on sodium currents in Nav1.5-expressing HEK293 cells", "setting": "hNav1.5; listed as DA-0218", "result": "no effect"},
      {"measurement": "effect on paclitaxel-induced mechanical allodynia", "setting": "[2]; intraperitoneal 30 mg/kg, listed as DA-0218", "result": "no effect on allodynia; also recorded: did not produce any anti-allodynia effects"},
      {"measurement": "effect duration, chronic pain", "setting": "[2]; intrathecal, paclitaxel model", "result": 3, "unit": "h"},
      {"measurement": "effect on paclitaxel-induced mechanical allodynia", "setting": "[2]; intrathecal, single injection, listed as DA-0218", "result": "acute reduction; also recorded: transiently but completely reversed; also recorded: statistically significant anti-allodynia effects"},
      {"measurement": "analgesic effect after repeated intrathecal injections (2nd and 3rd injection)", "setting": "[2]; tested one hour after each injection, paclitaxel model, listed as DA-0218", "result": "did not produce any analgesic effect; also recorded: induced acute tolerance"},
      {"measurement": "difference in relative current from the control group at the last measurement", "setting": "human Nav1.7; 0.01 μM, dose-response (FIG. 4), not significant", "result": 0.13},
      {"measurement": "difference in relative current from the control group at the last measurement", "setting": "human Nav1.7; 0.1 μM, dose-response (FIG. 4)", "result": 0.27},
      {"measurement": "inhibition of sodium currents vs. control", "setting": "human Nav1.7; 1 μM", "result": 47, "unit": "%"},
      {"measurement": "difference in relative current from the control group at the last measurement", "setting": "human Nav1.7; 1 μM, dose-response (FIG. 4)", "result": 0.47},
      {"measurement": "difference in relative current from the control group at the last measurement", "setting": "human Nav1.7; 10 μM, dose-response (FIG. 4)", "result": 0.76},
      {"measurement": "difference in relative current from the control group at the last measurement", "setting": "human Nav1.7; 10 μM, screen of compounds 1-9 (FIG. 3)", "result": 0.71},
      {"measurement": "IC50", "setting": "human Nav1.7; Nav1.7-expressing HEK293 cells, dose-response, read-out: 50% inhibition concentration (IC50)", "result": 740, "unit": "nM"},
      {"measurement": "effect duration, chronic itch", "setting": "[3]; intrathecal", "result": "> 5", "unit": "h"},
      {"measurement": "effect on lymphoma-induced chronic itch (scratch)", "setting": "[3]; intrathecal 30 nmol, Day 50 after CTCL inoculation, listed as DA-0218", "result": "inhibited; also recorded: significant reduction of scratch; also recorded: effective against lymphoma-induced itch"}
    ]}
  ]
}
